Data reported in patent US20250032636A1, “Phage-Drug Conjugate” (The University of Sydney, priority 2021, published 2025).
Like-named read-outs stand apart in the source and are kept apart here.

Assays:
[1] = system: P. aeruginosa biofilm; assay: Biofilm formation inhibition assay, crystal violet staining; assay type: cell-based, Pseudomonas aeruginosa PAO1; conditions: 6 h
Protocol: (§1) A Pseudomonas aeruginosa PAO1 inoculum was freshly prepared by inoculating one colony in 10 mL of LB broth and incubating on an orbital shaker at 220 rpm at 37° C. for 16-17 h. The bacterium culture medium was diluted 200-fold to an optical density at 600 nm (OD600) between 0.003-0.005 in M9 minimal medium (containing 48 mM Na2HPO4, 22 mM KH2PO4, 9 mM NaCl, 19 mM NH4Cl, 2 mM MgSO4, 0.1 mM CaCl2), and 20 mM glucose, pH 7.0). This medium was freshly prepared for each experiment.
(§2) For the biofilm inhibition assay, various treatment formulations were added to the 24-well microtiter plates simultaneously as cell culture media placement. The plates were incubated on an orbital shaker at 180 rpm for 6 h incubation at 37° C. For this 6 h biofilm dispersal assay, the plates were incubated on an orbital shaker at 180 rpm for 6 h at 37° C. for biofilm formation. Planktonic bacteria were removed, and 1 mL of fresh M9 minimal medium was added to each well, followed by each treatment addition. The plates were incubated for a further 2.5-3 h before quantifying the biofilm biomass and viabilities of biofilm bacteria.
(§3) The biofilm biomass was analysed by crystal violet (CV) staining. The biofilm on each well surface of the plates was washed once with 1 mL PBS before CV staining. 1 mL of 0.1% CV solution made by a 1:20 dilution of 2% CV aqueous solution in PBS. The CV stained biofilm was washed twice with 1 mL PBS after 20 min incubation. The remaining CV stained biofilm was dissolved in 33% glacial acetic acid and quantified by measuring the absorbance at 550 nm (OD550) using a multimode microplate reader (VICTOR™ X4, Perkin-Elmer). All biofilm assays were performed in two independent experiments.

[2] = system: P. aeruginosa W.T. PAO1; assay: Minimum inhibitory concentration (MIC), broth microdilution; assay type: cell-based, Pseudomonas aeruginosa; conditions: 37° C., 24 h
Protocol: The minimum inhibitory concentration (MIC) of the antimicrobial agents was measured using the broth microdilution technique. A bacterial culture medium with 10^5-10^6 CFU mL^−1 was prepared freshly in Mueller-Hinton (MH) broth and added to a 2-fold serial dilution of antimicrobial agents in 96-well microplates. A cell-only control and a medium-only control were also included in the same microplate. The 96-well microplates were incubated at 37° C. for 24 h. MIC was determined to be the concentration of antimicrobial agents at which the optical density (OD600) was equal to that of a medium-only control using a multimode microplate reader (VICTOR™ X4, Perkin-Elmer). The MIC can also be recorded as the lowest concentration preventing visible bacterial growth after 24 h.

[3] = system: P. aeruginosa biofilm bacteria; assay: Biofilm bacteria viability by CFU counting (drop-plate method); assay type: cell-based, Pseudomonas aeruginosa PAO1; conditions: FIG. 8; single component alone (AMK 4 or 8 μg/mL, nitroxide 2 mM, phage 10^6 PFU/mL); 2 h treatment
Protocol: The cells in the treated and untreated groups were counted using the drop-plated method to determine the biofilm bacteria viability. Biofilms on the surface of the wells were rinsed with once 1 mL PBS and then were resuspended in 1 mL PBS. The 24-well plates were placed in an ultrasonication bath for 5 min before viable cells count assay. The re-suspended biofilm bacteria were serially diluted 10-fold (10^−1 to 10^−10) in PBS, and 10 μL of each dilution was dropped onto MH agar plates in duplicate, which were incubated at 37° C. overnight. The results are presented as CFU mL^−1. A graph illustrating the effects of different POEGA-b-PVBA conjugated formulations on biofilm cell survival are shown in FIG. 8.
(§4) Biofilm dispersal and bacterial viability assays were conducted as described above using samples set out in Table 2. A graph illustrating the effects of different POEGA-b-PPFPA conjugated formulations on biofilm dispersal are shown in FIG. 13 and on biofilm cell survival are shown in FIG. 14.

[4] = system: P. aeruginosa biofilm; assay: Biofilm dispersal assay, crystal violet staining of biofilm biomass; assay type: cell-based, Pseudomonas aeruginosa PAO1
Protocol: as §1
as §2, with “The plates were incubated for a further 2.5-3 h before quantifying the biofilm biomass and viabilities of biofilm bacteria.” left out
The concentrations of each component used for the treatments would be based on their individual effects on biofilm dispersal. […]
as §3, §4

[5] = system: P. aeruginosa biofilms; assay: Confocal microscopy of LIVE/DEAD stained biofilms; assay type: cell-based, Pseudomonas aeruginosa; conditions: nitroxide at 2 mM; LIVE/DEAD staining, FIG. 9
Protocol: For microscopy analysis, P. aeruginosa biofilms were grown in glass-bottom 24-well plates (MatTek Corporation, Ashland MA, USA) for 6 h. After 3 h treatment, biofilms were rinsed twice with PBS before being stained with LIVE/DEAD® BacLight™ bacterial viability kit reagents (L-7007, Molecular Probes) according to the manufacturer's procedure. According to the manufacturer's procedure, 1 to 10 dilution of each of the two components was freshly prepared with PBS. 0.3 mL of the mixed solution was added to each well for 20 min incubation, and the plate was kept in the dark condition. The samples were analysed using confocal laser scanning microscopy (CLSM) with a Nikon A1 confocal microscope. Representative confocal images showing P. aeruginosa biofilms treated with POEGA-b-PVBA conjugated formulations are shown in FIG. 9.

MIC ([2]; Pseudomonas aeruginosa, PAO1, MH broth, read-out: MIC) [µg/mL]	Compound	effect on inhibiting the formation of biofilms ([1]; AMK at a higher concentration than 4 μg mL^−1)	concentration at which biofilm formation was inhibited ([1]; added with inoculated culture) [µg/mL]	survival of biofilm bacteria [3]	reduction of biofilm biomass of pre-established P. aeruginosa biofilm ([4]; AMK alone at 32 μg mL^−1, 8×MIC, 6 h biofilm, 2 h treatment) [%]	effect on biofilm dispersal ([4]; cotreatment study FIG. 7, AMK 4 or 8 μg/ml, phage 10^6 PFU mL^−1, 6 h biofilm, 2 h treatment)	inhibition of biofilm formation ([1]; nitroxide concentration range of 1 to 5 mM)	MIC ([2]; MH broth) [mM]	P. aeruginosa biofilm dispersal ([4]; comparative example, FIG. 13A, printed: nitroxide agent alone at AMK concentration of 8 μg/mL)	reduction of biofilm biomass ([4]; cotreatment study FIG. 7, nitroxide 2 mM, phage 10^6 PFU mL^−1, AMK 4 and 8 μg mL^−1, POEGA-b-PVBA linker, 2 h treatment)	P. aeruginosa biofilm dispersal ([4]; nitroxide alone at 2 mM, 6 h biofilm, 2 h treatment) [%]	P. aeruginosa biofilm dispersal ([4]; nitroxide alone at 5 mM, 6 h biofilm, 2 h treatment) [%]	biofilm biovolume, confocal [5]
4	NCC[C@H](O)C(=O)N[C@@H]1C[C@H](N)[C@@H](O[C@H]2O[C@H](CN)[C@@H](O)[C@H](O)[C@H]2O)[C@H](O)[C@H]1O[C@H]1O[C@H](CO)[C@@H](O)[C@H](N)[C@H]1O [AMK, amikacin]	strong effect	4	did not affect	10	did not have an effect							
	CC1(C)CC(N)CC(C)(C)N1[O] [nitroxide, 4-amino-2,2,6,6-tetramethyl-piperidinyloxyl]			did not affect			significantly inhibited biofilm formation	6	about 30%	about 30%	30	70	greatly reduced biofilm biovolume
